Test system: HEK293 alpha2C/GIRK, thallium flux fluorescence
Experiment: alpha2C-dependent GIRK activation, antagonist reversal – cell-based, thallium flux, with rauwolscine, mechanism study for alpha2C adrenergic receptor project, dose response (AID 435016)

In the case of `CCSc1nnc(NC(=O)NC(CC)(C(F)(F)F)C(F)(F)F)s1`, the EC50 is reported as 3.24 µM.
For `C=CCn1c(=S)[nH]c2ccccc2c1=O`, the EC50 was 3.19 µM.
For `O=c1c(-c2ccc3c(c2)OCCO3)c(C(F)(F)F)oc2cc(O)cc(O)c12`, the EC50 was 9.18 µM.
With `CCOC(=O)c1ccc(NC(=O)NC(C)C2CCCO2)cc1` (centres undefined) the EC50 was 49.9 µM.

Source: PubChem BioAssay AID435016 (Vanderbilt High Throughput Screening Facility, 2010)
